Results: ChEMBL document CHEMBL5257025, “Artemisinin-Derived Dimers: Potent Antimalarial and Anticancer Agents” (J Med Chem, 2016)

What was measured:
[1] = test system: P388; assay: Antiproliferative activity against mouse P388 cells assessed as cell growth inhibition incubated for 72 hrs by MTT assay; format: functional, cell-based; conditions: P388, 72 h
[2] = Antiproliferative activity against human YD-10B cells assessed as cell growth inhibition measured after 72 hrs by MTT assay; format: functional, cell-based
[3] = test system: HT-29; assay: cells; conditions: Homo sapiens, HT-29, 72 h
[4] = test system: MCF7; assay: Antiproliferative activity against human MCF7 cells assessed as reduction in cell viability measured after 48 hrs by SRB assay; format: functional, cell-based; conditions: MCF7, 48 h
[5] = test system: BeWo; assay: Antiproliferative activity against human BeWo cells assessed as reduction in cell viability after 72 hrs by MTT assay; format: functional, cell-based
[6] = test system: SK-OV-3; assay: Antiproliferative activity against human SK-OV-3 cells assessed as reduction in cell viability incubated for 48 hrs by MTT assay; format: functional, cell-based; conditions: SK-OV-3, 48 h
[7] = test system: KB; assay: Antiproliferative activity against human KB cells assessed as reduction in cell viability incubated for 48 hrs by MTT assay; format: functional, cell-based
[8] = test system: EL4; assay: Antiproliferative activity against mouse EL4 cells assessed as cell growth inhibition incubated for 72 hrs by MTT assay; format: functional, cell-based; conditions: EL4, 72 h
[9] = Cytotoxicity against pig LLC-PK1 cells; format: toxicity, cell-based, Sus scrofa; conditions: read-out: TC50 (the source's name)
[10] = test system: SK-MEL; assay: Antiproliferative activity against human SK-MEL cells assessed as reduction in cell growth inhibition; format: functional, cell-based
[11] = test system: BT-549; assay: Antiproliferative activity against human BT-549 cells assessed as reduction in cell viability incubated for 48 hrs by MTT assay; format: functional, cell-based; conditions: BT-549, 48 h
[12] = test system: M14; assay: Antiproliferative activity against human M14 cells assessed as growth inhibition incubated for 72 hrs by luminescence assay; format: functional, cell-based; conditions: M14, 72 h
[13] = test system: LOX IMVI; assay: Antiproliferative activity against human LOX IMVI cells assessed as cell growth inhibition; format: functional, cell-based
[14] = test system: CAKI-1; assay: Antiproliferative activity against human CAKI-1 cells assessed as reduction in cell viability after 48 hrs by SRB assay; format: functional, cell-based; conditions: CAKI-1, 48 h
[15] = test system: PC-3; assay: Antiproliferative activity against human PC-3 cells assessed as cell growth inhibition; format: functional, cell-based
[16] = test system: A498; assay: Antiproliferative activity against human A498 cells assessed as reduction in cell viability; format: functional, cell-based
[17] = test system: K562; assay: Antiproliferative activity against human K562 cells assessed as reduction in cell viability by MTT assay; format: functional, cell-based
[18] = test system: DU-145; assay: Antiproliferative activity against human DU-145 cells assessed as reduction in cell viability; format: functional, cell-based
[19] = test system: HL-60; assay: Antiproliferative activity against human HL-60 cells assessed as reduction in cell viability incubated for 48 hrs by MTT assay; format: functional, cell-based; conditions: HL-60, 48 h
[20] = test system: T47D; assay: Antiproliferative activity against human T47D cells assessed as inhibition of cell growth; format: functional, cell-based
[21] = test system: OVCAR-3; assay: Antiproliferative activity against human OVCAR-3 cells assessed as reduction in cell viability; format: functional, cell-based
[22] = test system: Ehrlich; assay: Cytotoxicity against mouse Ehrlich cells assessed as growth inhibition at 100 ug/ml; format: functional, cell-based
[23] = test system: UACC-62; assay: Antiproliferative activity against human UACC-62 cells assessed as reduction in cell viability incubated for 48 hrs by SRB assay; format: functional, cell-based; conditions: UACC-62, 48 h
[24] = test system: TK-10; assay: Antiproliferative activity against human TK-10 cells assessed as reduction in cell viability incubated for 48 hrs by SRB assay; format: functional, cell-based; conditions: TK-10, 48 h

Q: What does the source list for `C[C@@H]1CC[C@H]2[C@@H](C)C(CCSCCC3O[C@@H]4O[C@]5(C)CC[C@@H]6[C@@H](C)CC[C@H]([C@@H]3C)[C@]46OO5)O[C@H]3O[C@@]4(C)CC[C@@H]1[C@]32OO4` (stereo not given in full)?
A: IC50 [1]: 640 nM; IC50 [2]: 9300 nM; IC50 [3]: 390 nM; IC50 [4]: 30 nM; IC50 [5]: 22800 nM

Q: Which IC50 [6] does the source give for `CC(=O)O[C@H]1C(=O)[C@@]2(C)[C@H]([C@H](OC(=O)c3ccccc3)[C@]3(O)C[C@H](OC(=O)[C@H](O)[C@@H](NC(=O)c4ccccc4)c4ccccc4)C(C)=C1C3(C)C)[C@]1(OC(C)=O)CO[C@@H]1C[C@@H]2O` [PACLITAXEL] here?
A: 0.1 nM

Q: What about the IC50 [7] of the same compound?
A: 0.1 nM

Q: What about the IC50 [1] of the same compound?
A: 0.1 nM

Q: What about the IC50 [8] of the same compound?
A: 0.1 nM

Q: And the CC50 [9]?
A: 4390 nM

Q: What about the IC50 [2] of the same compound?
A: 0.1 nM

Q: And the IC50 [10]?
A: 0.1 nM

Q: What about the IC50 [3] of the same compound?
A: 0.1 nM

Q: And the IC50 [4]?
A: 0.1 nM

Q: What about the IC50 [5] of the same compound?
A: 0.1 nM

Q: What about the IC50 [11] of the same compound?
A: 0.1 nM

Q: With `C[C@@H]1CC[C@H]2[C@@H](C)C(OCC(COC3O[C@H]4O[C@@]5(C)CC[C@H]6[C@H](C)CC[C@@H]([C@H]3C)[C@@]46OO5)=NO)O[C@H]3O[C@@]4(C)CC[C@@H]1[C@]32OO4` (stereo not given in full) as the compound, how does the IC50 [6] read?
A: 15000 nM

Q: What about the IC50 [12] of the same compound?
A: 15000 nM

Q: What about the IC50 [13] of the same compound?
A: 55 nM

Q: What about the IC50 [14] of the same compound?
A: 13000 nM

Q: And the IC50 [15]?
A: 20 nM

Q: And the IC50 [16]?
A: 6500 nM

Q: What about the IC50 [17] of the same compound?
A: 150 nM

Q: And the IC50 [18]?
A: 15000 nM

Q: What about the IC50 [19] of the same compound?
A: 40 nM

Q: What about the IC50 [4] of the same compound?
A: 60 nM

Q: And the IC50 [20]?
A: 30 nM

Q: What about the IC50 [21] of the same compound?
A: 200 nM

Q: With `C[C@@H]1CC[C@H]2[C@@H](C)C(OCC(COC3O[C@H]4O[C@@]5(C)CC[C@H]6[C@H](C)CC[C@@H]([C@H]3C)[C@@]46OO5)OC(=O)CCC(=O)O)O[C@H]3O[C@@]4(C)CC[C@@H]1[C@]32OO4` (stereo not given in full) as the compound, how does the IC50 [6] read?
A: 25000 nM

Q: And the IC50 [12]?
A: 30000 nM

Q: What about the IC50 [13] of the same compound?
A: 80 nM

Q: And the IC50 [14]?
A: 30000 nM

Q: What about the IC50 [15] of the same compound?
A: 40 nM

Q: And the IC50 [16]?
A: 20000 nM

Q: And the IC50 [17]?
A: 200 nM

Q: And the IC50 [18]?
A: 20000 nM

Q: What about the IC50 [19] of the same compound?
A: 60 nM

Q: And the IC50 [4]?
A: 200 nM

Q: What about the IC50 [20] of the same compound?
A: 75 nM

Q: And the IC50 [21]?
A: 250 nM

Q: Which IC50 [22] does the source give for `C[C@H]1[C@@H](O[C@H]2O[C@H]3O[C@@]4(C)CC[C@H]5[C@H](C)CC[C@@H]([C@H]2C)[C@@]35OO4)O[C@H]2O[C@@]3(C)CC[C@H]4[C@H](C)CC[C@@H]1[C@@]24OO3` here?
A: 31200 nM

Q: With `COc1cc([C@@H]2c3cc4c(cc3[C@@H](O[C@@H]3O[C@@H]5CO[C@@H](C)O[C@H]5[C@H](O)[C@H]3O)[C@H]3COC(=O)[C@H]23)OCO4)cc(OC)c1O` [ETOPOSIDE] as the compound, how does the IC50 [23] read?
A: 830 nM

Q: What about the IC50 [24] of the same compound?
A: 830 nM

Q: What about the IC50 [4] of the same compound?
A: 830 nM

Q: Which IC50 [22] does the source give for `C[C@H]1[C@H](O[C@H]2O[C@H]3O[C@@]4(C)CC[C@H]5[C@H](C)CC[C@@H]([C@H]2C)[C@@]35OO4)O[C@H]2O[C@@]3(C)CC[C@H]4[C@H](C)CC[C@@H]1[C@@]24OO3` here?
A: 3600 nM
